Key:
Human SCD cells = experiment: Ex vivo sickling under hypoxic conditions; format: cell-based; details: for Net % of Sickled Cells / % Protection: 10 μM
Method: Red blood cells from SCD patients were used to evaluate the effects of Compound 1 on Hgb affinity for oxygen (i.e., oxygen affinity) and sickling under hypoxic conditions. Cells were incubated at 37° C. for 1, 2, and 3 hr with HEPES buffered saline (HBS) (untreated), HBS+dimethyl sulfoxide (DMSO) (vehicle), or 10 μM Compound 1. To assess oxygen dissociation, Hgb oxygen equilibrium curves were collected during deoxygenation.
Compound 1 (10 μM) reduced cell sickling under severe hypoxic conditions of 2% oxygen (PO2 of <20 mmHg) for up to 20 min (Table 8).

sickle RBCs = experiment: Phase 1: Lorrca Oxygenscan in SCD patients; format: in vivo, human; details: SCD single 700 mg, Post-dose (24 hours), median (range)
Method: In this study, SAD/MAD cohorts are randomized (3 to 1) to receive Compound 1 or placebo (P). Compound 1 was evaluated first in 4 healthy SAD cohorts and 4 healthy MAD (14-day dosing period) cohorts. Based on the safety, and PK/PD profile from HS, Compound 1 is then evaluated in 1 SCD SAD cohort and 2 SCD MAD cohorts. Specifically, based on the safety and pharmacokinetic/pharmacodynamics (PK/PD) profile in healthy volunteer studies, Compound 1 is evaluated in patients (pts) with SCD, first in a single dose (SD or SAD) cohort and then in multiple-dose (MD or MAD) cohorts (14-day and 12-week). Safety assessments include AEs, vital signs, ECGs and laboratory parameters. PK/PD blood sampling was performed on Day 1 (SAD/MAD) and Day 14 (MAD) and up to 72 h after the last dose and at the end-of-study visit. PD parameters included 2,3-DPG, ATP, and p50 in all cohorts with additional PD studies (including oxygen scan) performed only in the SCD cohorts. PD parameters included 2,3-DPG, ATP, p50, RBC deformability with controlled deoxygenation and reoxygenation (Lorrca® oxygen scan) and varying osmolality (Lorrca® osmoscan)). […]
Functional evaluation of RBCs was performed using Laser-Optical Rotational Red Cell Analyzer (Lorrca®) technology (RR Mechatronics, Zwaag, The Netherlands). […] In brief, the Oxygenscan allows for the measurement and visualisation of RBC elongation in shear stress in an oxygen gradient, during deoxygenation and re-oxygenation, expressed as the elongation index (EI). […] Evaluated Osmoscan parameters included: EImax; Omin (osmolality at ELmax; hypotonic region), which corresponds to the value of the hypotonic osmolality at which 50% of the cells hemolyse in an osmotic fragility assay and provides information on the initial surface-to-volume ratio of the RBCs; and Ohyper (osmolality corresponding to 50% of the EImax; hypertonic region), which correlates with the initial intracellular viscosity of the cell sample. […]
The effects of a single dose of Compound 1 (700 mg) versus placebo on oxygen scan, oxygen affinity (p50), and osmoscan in SCD patients were evaluated. […]

[1] = test system: H295R adreno-cortical carcinoma cell line; experiment: Cell viability (MTT Kit); format: cell-based
Method: To assess potential effects on steroidogenesis, Compound 1 was screened for steroid modulation in vitro using the H295R adreno-cortical carcinoma cell line (at 200 to 0.0002 μM) and in an assay to monitor cell viability (MTT Kit). Compound 1 indicated steroid modulation potential (% over vehicle) only at 200 μM, the top concentration tested, with 100% cellular viability at concentrations ≤20 μM (90% viability at 200 μM).

[2] = Phase 1: hematologic and hemolytic laboratory parameters in SCD patients; format: in vivo, human; details: SCD single 700 mg dose

O=C([C@H](CO)c1ccccc1)N1CC2=C(C1)CN(S(=O)(=O)c1cnc3c(c1)OCCO3)C2 (single isomer, unassigned) [Compound 1]
Net % of Sickled Cells (Human SCD cells; 0 min in hypoxic conditions (DMSO 7)): 10% | % Protection (Human SCD cells; 2 min in hypoxic conditions): −15% | Net % of Sickled Cells (Human SCD cells; 2 min in hypoxic conditions (DMSO 41)): 47% | % Protection (Human SCD cells; 5 min in hypoxic conditions): 14% | Net % of Sickled Cells (Human SCD cells; 5 min in hypoxic conditions (DMSO 57)): 49% | % Protection (Human SCD cells; 10 min in hypoxic conditions): 11% | Net % of Sickled Cells (Human SCD cells; 10 min in hypoxic conditions (DMSO 61)): 54% | % Protection (Human SCD cells; 15 min in hypoxic conditions): 16% | Net % of Sickled Cells (Human SCD cells; 15 min in hypoxic conditions (DMSO 68)): 57% | Net % of Sickled Cells (Human SCD cells; 20 min in hypoxic conditions (DMSO 71)): 60% | % Protection (Human SCD cells; 20 min in hypoxic conditions (last time point)): 15% | percent protection (maximum) (Human SCD cells; severe hypoxic conditions of 2% oxygen): up to 16% | EImin (Oxygenscan) (sickle RBCs; pre-dose 0.193 (0.16, 0.21)): 0.296 (0.26, 0.38) | EImax (Oxygenscan) (sickle RBCs; pre-dose 0.445 (0.41, 0.51)): 0.451 (0.42, 0.52) | POS (Oxygenscan) (sickle RBCs; pre-dose 35.4 (27.3, 38.8)): 24.0 (17.9, 31.8) | cellular viability ([1]; 200 μM): 90% | cellular viability ([1]; concentrations ≤20 μM): 100% | Hb difference versus placebo ([2]; 24 h): ~0.9 g/dL | increase in Hb ([2]; 24 hours, range 0.3, 0.9): 0.5 g/dL

— patent US12128035B2, “Activating pyruvate kinase R” (Novo Nordisk Health Care AG, priority 2021, dated 2024)
